Reference: patent US8394395B2, “Use of a cosmetic composition for the care of fatty skin” (Laboratories Clarins, priority 2006, dated 2013)

Assays:
[1] = system: human sebocytes (Hs 917.T, ATCC line No. CRL-7669); assay: Sebocyte proliferation, M.T.T. colorimetric test; type: cell-based; conditions: 72 hours of culture, versus reference medium
Procedure: (§1) A line of human sebocytes (Hs 917.T, ATCC line No. CRL-7669) was cultured in Dulbecco's modified Eagle's medium with 4.5 g/l of D-glucose and 10% of fetal calf serum. These adherent cells have a polygonal morphology and large nuclei.
Proliferation was evaluated by means of a validated colorimetric test, the M.T.T. test (dimethyl thiazolyl diphenyl tetrazolium) (according to Mosmann, J. Immunol. Meth. 1983 65: 55-63). This compound is metabolized by the mitochondria, to give blue formazan crystals, the amount of which depends directly on the activity of the mitochondrial succinate dehydrogenase enzyme and on the number of living cells.
As a result of this, the proliferation is measured by colorimetery (570 nm).
The proliferation was therefore evaluated according to the following conditions: • sebocytes in reference medium; • sebocytes cultured in the presence of the reference medium supplemented with chrysin at the 2 concentrations of 10^−3% and 5×10^−3%.
For each condition performed in sextuplet, the proliferation was analyzed after 72 hours of culture.

[2] = system: human sebocytes (Hs 917.T, ATCC line No. CRL-7669); assay: Sebocyte viability (MTT exclusion test); type: cell-based; conditions: chrysin concentrations of 10^−3% and 5×10^−3%; compared with conventional culture medium
Procedure: as §1, with “nuclei. Firstly, we verified the viability (MTT exclusion test) of the sebocytes in the presence of chrysin at various concentrations, in comparison with their conventional culture medium.” for “nuclei.”

O=c1cc(-c2ccccc2)oc2cc(O)cc(O)c12 [chrysin, 5,7-dihydroxyflavone]
difference in proliferation of human sebocytes in culture ([1]; chrysin concentration 5×10^−3%): −18.4%
difference in proliferation of human sebocytes in culture ([1]; chrysin concentration 10^−3%): −10.5%
cytotoxicity on sebocytes (viability) [2]: did not induce any cytotoxicity
